Test results from patent US20260085315A1, “POLYNUCLEOTIDE COMPOSITIONS AND METHODS FOR TREATMENT OF CANCER” (APTAH BIO, INC., priority 2023, published 2026).
d = 2'-deoxy (DNA); m = 2'-O-methyl

Experiments:
[1] = system: Human Glioblastoma Cancer (U-87MG) xenograft; experiment: Histopathology of tumor samples with scoring; format: in vivo, athymic nude mice; design: key: 1: Minimal Fibrosis; 2: Mild Fibrosis; 3: Moderate Fibrosis; 4: Prominent; conditions: individual animals; G3 APT20TTMG, G2 TMZ
From the text: The fixed tissues were processed for routine paraffin embedding followed by sectioning (3-6 micron). The sections were stained with hematoxylin and eosin. The prepared slides were examined under microscope by the study pathologist to record histopathological findings in tumor samples, related to capsule formation, cell type, connective tissue stroma, apoptosis, necrosis, lipid content, nucleus-to-cytoplasmic (N:C) ratio, nuclei mitotic figures, tumor grade, and level of differentiation. Each histopathological finding and tumor volume were assigned a score ranging from 1 to 4 (Table 7). The sum of these scores for each sample was used to infer the tumor aggressiveness.

[2] = system: neuroblastoma cell line SH-SY5Y; experiment: Kinetics of internalization; format: cell-based, Human; conditions: all evaluated times
SH-SY5Y cell line [3] = experiment: MTT cytotoxicity assay on human cancer cell panel (Example 2); format: cell-based; conditions: 0.03-30 μM tested, 0.1% FBS
Protocol: Cell lines were maintained in growth medium with 10% of Fetal Bovine Serum (FBS) until the time of the experiments. Cells were sub-cultured by trypsinization and splitting the cell suspension into fresh flasks and supplementing with fresh culture medium. To perform the assay, the cells were trypsinized, neutralized with complete medium (10% FBS), centrifuged, counted with assistance of a hemocytometer, and plated with the respective media with 10% FBS. Cell lines were plated at a density of 1×10^4 cells per well, other than the SH-SY5Y cell line which was plated at a density of 2.5×10^4. […] After 24, 48, 72 and 96 hours of incubation, the effect of ASMO1 and controls on cytotoxicity of cells was determined by MTT assay.
Briefly, plates were taken out and 20 μl of 5 mg/ml of MTT 3-(4,5-dimethythiazol-2-yl)-2,5-diphenyl tetrazolium bromide solution was added to all the wells. […] The absorbance of each well was then read at 540 nm using Synergy HT microplate reader.
As shown in FIG. 13A-D, up to 72 hours ASMO1 APT20TTMG seems to have a cytotoxic effect from the concentration of […]. At 96 hours, the profile is a little different, and the concentration of 0.3 μM seems to start some effect. […] MTT assay was performed in 4 distinct times and graphs are represented as absorbance (540 nm). […]

[4] = system: U87MG (Human Glioblastoma); experiment: BrdU cell proliferation assay; format: cell-based
Protocol: In vitro effects of APT20TTMG on viability and proliferation of human cancer cell line U87MG (Human Glioblastoma) were also evaluated by MTT and BrdU assays, respectively. Cells were treated with APT20TTMG and Reference Items in technical triplicates (Experiment was done in 3 different sets) at various concentrations for 48 h, 96 h, and 144 h. APT20TTMG and Reference Items were read after every 48 h.
As shown in FIGS. 32-33, A MTT assay (FIG. 32) was also performed with another five different concentrations of APT20TTMG (0.003, 0.03, 0.3, 3, and 30 μM) and at 48, 96, and 144 hours of incubation. […] Finally, to confirm whether APT20TTMG is a cytotoxic or cytostatic molecule considering its ability to reduce cellular viability in certain concentrations, a cell proliferation assay (FIG. 33) with the U87-MG cell line was also performed in the same conditions as the MTT assay. […] Cells were plated and treated with 5 different concentrations (0.003, 0.03, 0.3, 3, and 30 μM). BrdU assay was performed after 48, 96, or 144 hours of incubation. Data are plotted as a percentage (%) of cell viability compared to the negative control group (vehicle). Results are expressed as Mean±SEM of three independent experiments performed in three technical replicates. Statistical analysis was performed using one-way ANOVA followed by Dunnett's multiple comparison test. *p<0.05, **p<0.01, ***p<0.001, ****p<0.0001.

SH-SY5Y cell line [5] = experiment: Mitochondrial membrane potential; format: cell-based, Human; conditions: all treatments vs non-treated cells
SH-SY5Y cell line [6] = experiment: MTT mitochondrial activity / cell viability; format: cell-based, Human; conditions: any concentration; 24 and 48 hours
Protocol: FIG. 22A-22B illustrates the evaluation of mitochondrial activity in SH-SY5Y cell line after incubation in ASMO1. MTT assay was performed after 24 hours (FIG. 22A) and 48 hours (FIG. 22B) of incubation.

MCF-7 cell line = experiment: Internalization of carboxyfluorescein-conjugated APT20TTMG by flow cytometry; format: cell-based, Human; conditions: 1 μM carboxyfluorescein conjugate
Protocol: To investigate the internalization of ASMO APT20TTMG by MCF-7 cell line, the quantification of intracellular fluorescence was measured by flow cytometry. For this aim, the ASMO APT20TTMG was conjugated to the fluorochrome carboxyfluorescein. It is assumed that the percentage of ASMO molecules internalized is presumably proportional to the quantified fluorescence signal detected inside the cells. The cell lines were cultured in 24-well plates for 24 hours at 5×10^4 cells per well. After that, the cells were incubated with ASMO1 prepared in culture medium without FBS at a concentration of 1 μM for 0.5, 1, 2, 4, and 6 hours. Untreated cells were used as negative controls. After treatment incubation, cells were washed twice with 1 mL of PBS/well and then incubated with 200 μL/well of trypsin/EDTA solution for approximately 3 minutes for disaggregation of adherent cells. Trypsin was neutralized by the addition of complete medium and cells were centrifuged at 1500 rpm for 5 minutes. Subsequently, the cells were washed with 2 mL/sample of PBS and centrifuged again at 1500 rpm for 5 minutes. […] The fluorescence of the cells, corresponding to the cellular uptake of the APT20TTMG labeled with carboxyfluorescein, was analyzed using a BD FACSCANTO II Flow cytometer (BD Biosciences, NJ, USA) through the acquisition of 10.000 gated events considering each sample.

APT20TTMG: engineered polynucleotide ASMO1, 24 nt, SEQ ID NO: 3 gtccactaacctttcaggccagcg; targeting moieties 5′-GTCCA-3′ and 5′-CG-3′, U1 snRNP recruiting moiety (GTCCACTAACCTTTCAGGCCAGCG; sugars from the 5' end m5 d14 m5, all phosphorothioate, methylation of C and T or U not given here)
Score: Necrosis [1]: 4
internalization [2]: around 50%
concentration that starts some effect (MTT) (SH-SY5Y cell line [3]; 96 hours): ≥ 0.3 µM
concentration from which a cytotoxic effect is seen (MTT) (SH-SY5Y cell line [3]; up to 72 hours): ≥ 1 p M
cell proliferation (BrdU) ([4]; 0.03 μM, first 48 hours): increase in cell proliferation
cell proliferation (BrdU) ([4]; highest concentrations (0.3, 3, 30 μM), 144 hours): significant reduction in cell proliferation
cell proliferation (BrdU) ([4]; highest concentrations (0.3, 3, 30 μM), first 48 hours): temporary increase in cell proliferation
cell proliferation (BrdU) ([4]; lowest concentrations (0.003 and 0.03 μM), 144 hours): statistically significant decrease in proliferation
mitochondrial membrane potential (SH-SY5Y cell line [5]): no change in mitochondrial membrane potential
cell viability (MTT) (SH-SY5Y cell line [6]): no change in cell viability
internalization (MCF-7 cell line; after 1 hour and subsequent period (to 6 h)): around 80%
internalization (MCF-7 cell line; first half hour): 75.3±1.4%
